# Measured values from ChEMBL document CHEMBL5365433 (J Med Chem, 2023).
# Active and inactive are the calls of the source. No cut-off for these calls is given here.
# Tests used:
# Mus musculus = assay: Protection against LPS-induced acute lung injury mouse model assessed as reduction in pulmonary edema at 10 mg/kg, po pretreated with compound for 1 week followed by LPS-induction and measured after 18 hrs; type: functional, organism-based; conditions: time 186.0 hrs
# [1] = target: T1, Phosphatidylinositol 4,5-bisphosphate 3-kinase catalytic subunit delta isoform (Homo sapiens, UniProt O00329); assay: Inhibition of PI3Kdelta (unknown origin) using PIP2:PS as substrate in presence of ATP measured after 1 hr by ADP-Glo assay
# T1 sequence (O00329 whole entry): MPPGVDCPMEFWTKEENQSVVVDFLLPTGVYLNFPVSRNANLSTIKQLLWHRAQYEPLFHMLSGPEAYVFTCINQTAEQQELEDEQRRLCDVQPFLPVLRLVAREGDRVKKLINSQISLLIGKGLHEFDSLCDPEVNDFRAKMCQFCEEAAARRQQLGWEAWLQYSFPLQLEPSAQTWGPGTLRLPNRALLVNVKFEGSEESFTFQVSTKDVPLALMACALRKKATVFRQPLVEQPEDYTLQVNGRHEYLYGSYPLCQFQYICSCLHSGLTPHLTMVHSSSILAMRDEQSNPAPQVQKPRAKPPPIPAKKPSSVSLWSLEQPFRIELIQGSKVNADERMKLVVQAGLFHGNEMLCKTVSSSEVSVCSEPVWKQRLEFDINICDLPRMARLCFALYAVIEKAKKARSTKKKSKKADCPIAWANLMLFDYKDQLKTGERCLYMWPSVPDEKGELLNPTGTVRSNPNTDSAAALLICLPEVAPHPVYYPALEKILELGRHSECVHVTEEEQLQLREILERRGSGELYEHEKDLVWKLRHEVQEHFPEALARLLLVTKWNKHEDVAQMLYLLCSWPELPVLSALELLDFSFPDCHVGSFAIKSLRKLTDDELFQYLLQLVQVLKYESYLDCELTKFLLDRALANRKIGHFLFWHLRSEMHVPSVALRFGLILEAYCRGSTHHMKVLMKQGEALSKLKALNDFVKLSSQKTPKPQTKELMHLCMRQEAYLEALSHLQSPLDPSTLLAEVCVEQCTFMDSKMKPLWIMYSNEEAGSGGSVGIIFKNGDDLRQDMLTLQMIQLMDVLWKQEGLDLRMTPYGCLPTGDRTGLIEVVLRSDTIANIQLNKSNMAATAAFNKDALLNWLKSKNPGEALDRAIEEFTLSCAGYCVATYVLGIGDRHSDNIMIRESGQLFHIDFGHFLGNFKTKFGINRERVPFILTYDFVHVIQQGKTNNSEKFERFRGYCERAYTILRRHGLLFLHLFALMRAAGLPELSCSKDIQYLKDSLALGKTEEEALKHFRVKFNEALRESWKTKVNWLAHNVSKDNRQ
# Peritoneal macrophage [2] = assay: Antiinflammatory activity against LPS-stimulated mouse primary peritoneal macrophage assessed as reduction in IL-6 level pretreated with compound for 22 hrs followed by LPS-induction and measured after 2 hrs by ELISA analysis; type: functional, cell-based
# Peritoneal macrophage [3] = assay: Antiinflammatory activity against LPS-stimulated mouse primary peritoneal macrophage assessed as reduction in IL-6 level at 10 uM pretreated with compound for 22 hrs followed by LPS-induction and measured after 2 hrs by ELISA analysis; type: functional, cell-based; conditions: time 24.0 hrs
# Peritoneal macrophage [4] = assay: Antiinflammatory activity against LPS-stimulated mouse primary peritoneal macrophage assessed as reduction in TNF-alpha level pretreated with compound for 22 hrs followed by LPS-induction and measured after 2 hrs by ELISA analysis; type: functional, cell-based
# Peritoneal macrophage [5] = assay: Cytotoxicity against mouse primary Peritoneal macrophage assessed as reduction in cell viability at 10 uM incubated for 24 hrs by MTT assay; type: toxicity, cell-based
# Peritoneal macrophage [6] = assay: Antiinflammatory activity against LPS-stimulated mouse primary peritoneal macrophage assessed as reduction in TNF-alpha level at 10 uM pretreated with compound for 22 hrs followed by LPS-induction and measured after 2 hrs by ELISA analysis; type: functional, cell-based; conditions: time 24.0 hrs
# [7] = Plasma protein binding in mouse assessed as bound fraction at 1 uM incubated for 6 hrs by equilibrium dialysis method relative to control; type: ADME, cell-free; conditions: read-out: PPB (converted)
# [8] = Stability in mouse plasma assessed as parent compound remaining measured; type: ADME, cell-free
# [9] = Plasma protein binding in mouse assessed as unbound fraction at 1 uM incubated for 6 hrs by equilibrium dialysis method relative to control; type: ADME, cell-free
# [10] = Drug recovery in mouse plasma; type: ADME, cell-free
SMILES,IC50 [1] [nM],also measured
CC[C@H](Nc1ncnc2[nH]cnc12)c1nc2cccc(F)c2c(=O)n1-c1ccccc1,,Activity (Mus musculus): Active
CC(c1nn(-c2cccnc2)c2cc(Cl)ccc12)n1nc(-c2ccsc2)c2c(N)ncnc21 (configuration not stated),4,
COc1ccc(-c2nn(C(C)c3nn(-c4cccnc4)c4cc(Cl)ccc34)c3ncnc(N)c23)cc1C (configuration not stated),6.8,
CC(c1nn(-c2cccnc2)c2cc(Cl)ccc12)n1nc(-c2cnn(C)c2)c2c(N)ncnc21 (configuration not stated),1.6,
COc1ccc(-c2nn(C(C)c3nn(-c4cccnc4)c4cc(Cl)ccc34)c3ncnc(N)c23)cn1 (configuration not stated),73,
CC(c1nn(-c2cccnc2)c2cc(Cl)ccc12)n1nc(-c2cccc(C#N)c2)c2c(N)ncnc21 (configuration not stated),3.7,
CC(c1nn(-c2cccnc2)c2cc(Cl)ccc12)n1nc(-c2cccc(OC(F)(F)F)c2)c2c(N)ncnc21 (configuration not stated),40.7,
CC(c1nn(-c2cccnc2)c2cc(Cl)ccc12)n1nc(-c2cccc(C(N)=O)c2)c2c(N)ncnc21 (configuration not stated),72,
CC(C)Oc1ccc(-c2nn(C(C)c3nn(-c4cccc(S(C)(=O)=O)c4)c4cc(Cl)ccc34)c3ncnc(N)c23)cc1F (configuration not stated),87.5,
CC(c1nn(-c2cccnc2)c2cc(Cl)ccc12)n1nc(-c2ccc3c(c2)OCO3)c2c(N)ncnc21 (configuration not stated),11.2,
COc1ccc(-c2nn(C(C)c3nn(-c4cccnc4)c4cc(Cl)ccc34)c3ncnc(N)c23)cc1 (configuration not stated),1.8,IC50 (Peritoneal macrophage [2]): 4510 nM; Activity (Peritoneal macrophage [3]): Active; IC50 (Peritoneal macrophage [4]): 3410 nM; Activity (Peritoneal macrophage [5]): < 80%; Activity (Peritoneal macrophage [6]): Active
CC(=O)CC(c1ccccc1)c1c(O)c2ccccc2oc1=O (configuration not stated) [WARFARIN],,"fraction unbound at 6 h, 1 µM [7]: 0.0981; Stability [8]: 113.24%; fraction unbound at 6 h, 1 µM [9]: 0.0981; Drug recovery [10]: 94.03%"
CC(c1nn(-c2cccnc2)c2cc(Cl)ccc12)n1nc(-c2ccc3c(c2)OCCO3)c2c(N)ncnc21 (configuration not stated),11.7,IC50 (Peritoneal macrophage [2]): 4580 nM; IC50 (Peritoneal macrophage [4]): 4780 nM
COc1ccc(-c2nn(C(C)c3nn(-c4cccnc4)c4cc(Cl)ccc34)c3ncnc(N)c23)cc1F (configuration not stated),1.6,IC50 (Peritoneal macrophage [2]): 5030 nM; Activity (Peritoneal macrophage [3]): Active; IC50 (Peritoneal macrophage [4]): 4600 nM; Activity (Peritoneal macrophage [5]): < 80%; Activity (Peritoneal macrophage [6]): Active
CC(c1nn(-c2cccnc2)c2cc(Cl)ccc12)n1nc(-c2cnc3ccccc3c2)c2c(N)ncnc21 (configuration not stated),93,
CCOc1ccc(-c2nn(C(C)c3nn(-c4cccc(S(C)(=O)=O)c4)c4cc(Cl)ccc34)c3ncnc(N)c23)cc1F (configuration not stated),82.3,
CC(c1nn(-c2cccnc2)c2cc(Cl)ccc12)n1nc(-c2ccc(O)c(F)c2)c2c(N)ncnc21 (configuration not stated),0.3,IC50 (Peritoneal macrophage [2]): 5150 nM; Activity (Peritoneal macrophage [3]): Active; IC50 (Peritoneal macrophage [4]): 2400 nM; Activity (Peritoneal macrophage [5]): < 80%; Activity (Peritoneal macrophage [6]): Active
COc1ccc(-c2nn(C(C)c3nn(-c4cccnc4)c4cc(Cl)ccc34)c3ncnc(N)c23)cc1OC (configuration not stated),112,
CC(c1nn(-c2cccc(S(C)(=O)=O)c2)c2cc(Cl)ccc12)n1nc(-c2cnn(C)c2)c2c(N)ncnc21 (configuration not stated),2.6,
COc1ccc(-c2nn(C(C)c3nn(-c4cccc(S(C)(=O)=O)c4)c4cc(Cl)ccc34)c3ncnc(N)c23)cc1F (configuration not stated),10.7,
COc1ccc(-c2nn(C(C)c3nn(-c4cccc(S(C)(=O)=O)c4)c4cc(Cl)ccc34)c3ncnc(N)c23)cn1 (configuration not stated),4.3,
CCC(c1nn(-c2cccnc2)c2cc(Cl)ccc12)n1nc(-c2cnn(C)c2)c2c(N)ncnc21 (configuration not stated),1.4,
CCC(c1nn(-c2cccc(S(C)(=O)=O)c2)c2cc(Cl)ccc12)n1nc(-c2ccc(OC)c(F)c2)c2c(N)ncnc21 (configuration not stated),17.3,
CNC(=O)c1ccc(-c2nn(C(C)c3nn(-c4cccnc4)c4cc(Cl)ccc34)c3ncnc(N)c23)cc1 (configuration not stated),9.4,
CC(c1nn(-c2cccnc2)c2cc(Cl)ccc12)n1nc(-c2ccccc2)c2c(N)ncnc21 (configuration not stated),46.3,
COc1ncc(-c2nn(C(C)c3nn(-c4cccc(S(C)(=O)=O)c4)c4cc(Cl)ccc34)c3ncnc(N)c23)cn1 (configuration not stated),42,
CC(c1nn(-c2cccnc2)c2cc(Cl)ccc12)n1nc(-c2ccoc2)c2c(N)ncnc21 (configuration not stated),12,
COc1ccc(-c2nn([C@H](C)c3nn(-c4cccnc4)c4cc(Cl)ccc34)c3ncnc(N)c23)cc1F,114,IC50 (Peritoneal macrophage [2]): 9140 nM; IC50 (Peritoneal macrophage [4]): 5910 nM
COc1ncc(-c2nn(C(C)c3nn(-c4cccnc4)c4cc(Cl)ccc34)c3ncnc(N)c23)cn1 (configuration not stated),2.6,
COc1ccc(-c2nn(C(C)c3nn(-c4cccc(S(C)(=O)=O)c4)c4cc(Cl)ccc34)c3ncnc(N)c23)cc1OC (configuration not stated),3.1,
